# Data: US20240376097A1, “BCL-2 Inhibitor” (BeiGene Ltd., priority 2020, published 2024)
# Columns and labels:
# [1] = tested on: recombinant human Bcl-2-G101V protein; assay: Bcl-2-G101V TR-FRET Assay; type: binding; details: ratio of biochemical IC50 Bcl-2 G101V / Bcl-2 WT
# How it was run: (§1)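 IC50 values derive from four-parameter logistic fitting of percent inhibition data. That inhibition of ligand binding to Bcl-2-G101V is computed from the 490 nm/520 nm TR-FRET ratio under 337 nm excitation, over a rising compound concentration series.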
# [2] = target: recombinant human Bcl-2-G101V protein (Homo sapiens (Human), UniProt P10415, G101V); assay: Bcl-2-G101V TR-FRET Assay; type: binding; details: Bcl-2 G101V mutant, TR-FRET; read-out: Biochemical assay (IC50, nM) Bcl-2 G101V
# How it was run: as §1
# [3] = tested on: BCL-2 G101V knock-in cell line H96 (derive from RS4;11); assay: Bcl 2-G101V Knock-In RS4;11 Cell Proliferation Assay; type: cell-based; details: Homo sapiens, RS4;11 Bcl-2 G101V knock-in clone H96, 48 hrs, CellTiter-GLO, read-out: Cellular proliferation assay (IC50, nM) RS4
# How it was run: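 H96, a CRISPR-generated RS4;11 clone carrying BCL2-G101V knock-in (WES/RNA-seq validated), seeded 50,000 per well and exposed 48 h at 37 °C to 10-point dilutions topping at 1 or 10 μM. Viability by CellTiter-Glo luminescence; mean IC50.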
# [4] = tested on: RS4;11 (BCL-2 dependent acute lymphoblastic leukemia cell line); assay: RS4;11 Cell Proliferation Assay; type: cell-based; details: Homo sapiens, RS4-11, RS4;11 cells, read-out: Cellular proliferation assay (IC50, nM) RS4
# How it was run: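 RS4;11 cells, 50,000 per well in RPMI-1640 with 10% FBS, treated 48 h at 37 °C with a 10-point dilution series topping at 1 μM. Viability read by CellTiter-Glo ATP luminescence; mean IC50 reported.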
# [5] = target: Recombinant human Bcl-2 protein (Homo sapiens (Human), UniProt P10415); assay: Bcl-2 TR-FRET Assay; type: binding; details: Bcl-2 wild type, TR-FRET; read-out: Biochemical assay (IC50, nM) Bcl-2 WT
# How it was run: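 Compounds were pre-incubated with 0.05 nM recombinant Bcl-2 for 0.5 h at room temperature in potassium phosphate buffer, pH 7.5. FITC-Bak peptide (0.5 nM) and Tb-cryptate antibody were then added for 1 h. Percent inhibition from TR-FRET signals gave IC50 values.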
Compound,Ratio of Bcl-2 G101V/WT [1],IC50 [2] [nM],IC50 [3] [nM],IC50 [4] [nM],IC50 [5] [nM]
"CC(C)c1ccccc1C1CN(S(C)(=O)=O)CCN1C1CC2(CCN(c3ccc(C(=O)NS(=O)(=O)c4ccc(NC[C@H]5CC[C@](C)(O)CC5)c([N+](=O)[O-])c4)c(Oc4cnc5[nH]ccc5c4)c3)CC2)C1 (stereo partly drawn) [Example 66, 2-((1H-pyrrolo[2,3-b]pyridin-5-yl)oxy)-N-((4-((((1r,4r)-4-hydroxy-4-methylcyclohexyl)methyl)amino)-3-nitrophenyl)sulfonyl)-4-(2-(2-(2-isopropylphenyl)-4-(methylsulfonyl)piperazin-1-yl)-7-azaspiro[3.5]nonan-7-yl) benzamide]",47.1,1.6,6.61,0.6,0.034
"CCc1ccccc1C1CN(Cc2ccc(OC)cc2)CCN1C1CC2(CCN(c3ccc(C(=O)NS(=O)(=O)c4ccc(NC[C@H]5CC[C@](C)(O)CC5)c([N+](=O)[O-])c4)c(Oc4cnc5[nH]ccc5c4)c3)CC2)C1 (stereo partly drawn) [Example 76, 2-((1H-pyrrolo[2,3-b]pyridin-5-yl)oxy)-4-(2-(2-(2-ethylphenyl)-4-(4-methoxybenzyl)piperazin-1-yl)-7-azaspiro[3.5]nonan-7-yl)-N-((4-((((1r,4r)-4-hydroxy-4-methylcyclohexyl)methyl)amino)-3-nitrophenyl)sulfonyl)benzamide]",17,1.3,6.5,0.69,0.074
COc1ccc(CN2CCN(C3CC4(CCN(c5ccc(C(=O)NS(=O)(=O)c6ccc(NC[C@H]7CC[C@](C)(O)CC7)c([N+](=O)[O-])c6)c(Oc6cnc7[nH]ccc7c6)c5)CC4)C3)[C@@H](c3ccccc3C(C)C)C2)cc1OC [Example 81b],27,2,11.6,2.85,0.074
"COc1ccc(CN(C)C2CCN(C3CC4(CCN(c5ccc(C(=O)NS(=O)(=O)c6ccc(NC[C@H]7CC[C@](C)(O)CC7)c([N+](=O)[O-])c6)c(Oc6cnc7[nH]ccc7c6)c5)CC4)C3)C(c3ccccc3C3CC3)C2)cc1 (stereo partly drawn) [Example 105, 2-((1H-pyrrolo[2,3-b]pyridin-5-yl)oxy)-4-(2-(2-(2-cyclopropylphenyl)-4-((4-methoxybenzyl)(methyl)amino)piperidin-1-yl)-7-azaspiro[3.5]nonan-7-yl)-N-((4-((((1r,4r)-4-hydroxy-4-methylcyclohexyl)methyl)amino)-3-nitrophenyl)sulfonyl)benzamide]",2.5,0.25,16.6,2.12,0.1
"CCc1cc(CN2CCN(C3CC4(CCN(c5ccc(C(=O)NS(=O)(=O)c6ccc(NC[C@H]7CC[C@](C)(O)CC7)c([N+](=O)[O-])c6)c(Oc6cnc7[nH]ccc7c6)c5)CC4)C3)C(c3ccccc3C(C)C)C2)ccc1OC (stereo partly drawn) [Example 116, 2-((1H-pyrrolo[2,3-b]pyridin-5-yl)oxy)-4-(2-(4-(3-ethyl-4-methoxybenzyl)-2-(2-isopropylphenyl)piperazin-1-yl)-7-azaspiro[3.5]nonan-7-yl)-N-((4-((((1r,4r)-4-hydroxy-4-methylcyclohexyl)methyl)amino)-3-nitrophenyl)sulfonyl)benzamide]",4.7,2,4.76,0.58,0.42
"COc1c(Cl)cccc1CN1CCN(C2CC3(CCN(c4ccc(C(=O)NS(=O)(=O)c5ccc(NC[C@H]6CC[C@](C)(O)CC6)c([N+](=O)[O-])c5)c(Oc5cnc6[nH]ccc6c5)c4)CC3)C2)C(c2ccccc2C(C)C)C1 (stereo partly drawn) [Example 119, 2-((1H-pyrrolo[2,3-b]pyridin-5-yl)oxy)-4-(2-(4-(3-chloro-2-methoxybenzyl)-2-(2-isopropylphenyl)piperazin-1-yl)-7-azaspiro[3.5]nonan-7-yl)-N-((4-((((1r,4r)-4-hydroxy-4-methylcyclohexyl)methyl)amino)-3-nitrophenyl)sulfonyl)benzamide]",8.5,3.1,14.4,1.44,0.37
"COc1cccc(CN2CCN(C3CC4(CCN(c5ccc(C(=O)NS(=O)(=O)c6ccc(NC[C@H]7CC[C@](C)(O)CC7)c([N+](=O)[O-])c6)c(Oc6cnc7[nH]ccc7c6)c5)CC4)C3)C(c3ccccc3C(C)C)C2)c1Cl (stereo partly drawn) [Example 120, 2-((1H-pyrrolo[2,3-b]pyridin-5-yl)oxy)-4-(2-(4-(2-chloro-3-methoxybenzyl)-2-(2-isopropylphenyl)piperazin-1-yl)-7-azaspiro[3.5]nonan-7-yl)-N-((4-((((1r,4r)-4-hydroxy-4-methylcyclohexyl)methyl)amino)-3-nitrophenyl)sulfonyl)benzamide]",8,3.4,12.7,1.25,0.42
"COc1cc(CN2CCN(C3CC4(CCN(c5ccc(C(=O)NS(=O)(=O)c6ccc(NC[C@H]7CC[C@](C)(O)CC7)c([N+](=O)[O-])c6)c(Oc6cnc7[nH]ccc7c6)c5)CC4)C3)[C@H](c3ccccc3C(C)C)C2)ccc1F [Example 121a, 2-((1H-pyrrolo[2,3-b]pyridin-5-yl)oxy)-4-(2-((R)-4-(4-fluoro-3-methoxybenzyl)-2-(2-isopropylphenyl)piperazin-1-yl)-7-azaspiro[3.5]nonan-7-yl)-N-((4-((((1r,4r)-4-hydroxy-4-methylcyclohexyl)methyl)amino)-3-nitrophenyl)sulfonyl)benzamide]",3.4,0.4,0.603,0.153,0.12
"COc1cc(CN2CCN(C3CC4(CCN(c5ccc(C(=O)NS(=O)(=O)c6ccc(NC[C@H]7CC[C@](C)(O)CC7)c([N+](=O)[O-])c6)c(Oc6cnc7[nH]ccc7c6)c5)CC4)C3)C(c3ccccc3C(C)C)C2)ccc1Cl (stereo partly drawn) [Example 126, 2-((1H-pyrrolo[2,3-b]pyridin-5-yl)oxy)-4-(2-(4-(4-chloro-3-methoxybenzyl)-2-(2-isopropylphenyl)piperazin-1-yl)-7-azaspiro[3.5]nonan-7-yl)-N-((4-((((1r,4r)-4-hydroxy-4-methylcyclohexyl)methyl)amino)-3-nitrophenyl)sulfonyl)benzamide]",4.5,1.9,3.6,0.18,0.42
"COc1ccc(CN2CCN(C3CC4(CCN(c5ccc(C(=O)NS(=O)(=O)c6ccc(NC[C@H]7CC[C@](C)(O)CC7)c([N+](=O)[O-])c6)c(Oc6cnc7[nH]ccc7c6)c5)CC4)C3)C(c3ccccc3C(C)C)C2)cc1Cl (stereo partly drawn) [Example 128, 2-((1H-pyrrolo[2,3-b]pyridin-5-yl)oxy)-4-(2-(4-(3-chloro-4-methoxybenzyl)-2-(2-isopropylphenyl)piperazin-1-yl)-7-azaspiro[3.5]nonan-7-yl)-N-((4-((((1r,4r)-4-hydroxy-4-methylcyclohexyl)methyl)amino)-3-nitrophenyl)sulfonyl)benzamide]",4,2.6,3.94,0.36,0.63
"CC(C)c1ccccc1C1CN(Cc2cccc3c2OCCC3)CCN1C1CC2(CCN(c3ccc(C(=O)NS(=O)(=O)c4ccc(NC[C@H]5CC[C@](C)(O)CC5)c([N+](=O)[O-])c4)c(Oc4cnc5[nH]ccc5c4)c3)CC2)C1 (stereo partly drawn) [Example 130, 2-((1H-pyrrolo[2,3-b]pyridin-5-yl)oxy)-4-(2-(4-(chroman-8-ylmethyl)-2-(2-isopropylphenyl)piperazin-1-yl)-7-azaspiro[3.5]nonan-7-yl)-N-((4-((((1r,4r)-4-hydroxy-4-methylcyclohexyl)methyl)amino)-3-nitrophenyl)sulfonyl)benzamide]",3.4,1.9,2.8,0.34,0.57
"CC(C)c1ccccc1C1CN(Cc2cccc3c2CCCO3)CCN1C1CC2(CCN(c3ccc(C(=O)NS(=O)(=O)c4ccc(NC[C@H]5CC[C@](C)(O)CC5)c([N+](=O)[O-])c4)c(Oc4cnc5[nH]ccc5c4)c3)CC2)C1 (stereo partly drawn) [Example 133, 2-((1H-pyrrolo[2,3-b]pyridin-5-yl)oxy)-4-(2-(4-(chroman-5-ylmethyl)-2-(2-isopropylphenyl)piperazin-1-yl)-7-azaspiro[3.5]nonan-7-yl)-N-((4-((((1r,4r)-4-hydroxy-4-methylcyclohexyl)methyl)amino)-3-nitrophenyl)sulfonyl)benzamide]",3.4,1.9,2.8,0.34,0.57
